Reference: ChEMBL document CHEMBL4706610, “Hydroxypyridinone-Based Iron Chelators with Broad-Ranging Biological Activities” (J Med Chem, 2020)
≈ marks a conversion by molar mass, not a printed value.

How the values were obtained:
[1] = Electrochemical behavior of the compound assessed as redox potential; assay type: physicochemical
[2] = Binding affinity to iron assessed as pFe3+
[3] = target: Acetylcholinesterase (Electrophorus electricus, UniProt O42275); assay: Inhibition of electric eel AChE using acetylthiocholine iodide as substrate preincubated for 15 mins followed by substrate addition and measured for 5 mins by Ellman's method
Acetylcholinesterase, sequence (O42275 whole entry): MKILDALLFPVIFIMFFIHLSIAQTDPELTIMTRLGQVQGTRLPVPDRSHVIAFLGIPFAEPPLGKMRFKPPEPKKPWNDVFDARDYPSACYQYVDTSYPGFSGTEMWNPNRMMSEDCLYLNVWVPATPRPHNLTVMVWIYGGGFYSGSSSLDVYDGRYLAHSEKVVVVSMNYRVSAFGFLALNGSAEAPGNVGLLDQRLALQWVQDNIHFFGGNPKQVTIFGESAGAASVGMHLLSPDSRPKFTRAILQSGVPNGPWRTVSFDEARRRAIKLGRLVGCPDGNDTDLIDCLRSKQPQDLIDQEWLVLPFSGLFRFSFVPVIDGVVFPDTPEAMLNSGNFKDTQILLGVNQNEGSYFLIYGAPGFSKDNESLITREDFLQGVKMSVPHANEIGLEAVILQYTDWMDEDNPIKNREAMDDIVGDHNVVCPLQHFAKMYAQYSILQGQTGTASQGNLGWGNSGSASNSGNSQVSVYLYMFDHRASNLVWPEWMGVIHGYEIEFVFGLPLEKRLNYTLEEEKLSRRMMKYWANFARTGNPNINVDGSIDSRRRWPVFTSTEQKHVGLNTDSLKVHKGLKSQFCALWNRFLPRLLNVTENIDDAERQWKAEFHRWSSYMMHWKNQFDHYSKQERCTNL

[4] = tested on: Pseudomonas aeruginosa; assay: Antibacterial activity against Pseudomonas aeruginosa incubated for 2 hrs followed by sterilized TSB addition and measured after 24 hrs by visual inspection; assay type: functional; details: time 26 hrs
[5] = Octanol-buffer partition coefficient, logP of the compound at pH 7.4 by shake flask method; assay type: physicochemical
[6] = Binding affinity to iron assessed as pFe3+ at pH 7.45
[7] = tested on: Rattus norvegicus; assay: Iron scavenging activity in 59Fe-ferritin-loaded rat assessed as iron mobilization efficacy at 450 umol/kg, po dosed 1 hr after 59Fe-ferritin injection and measured 24 hrs after 59Fe-ferritin injection by gamma counting method relative to control; assay type: functional; details: dose 450 µmol/kg; time 23 hrs
[8] = Octanol/water partition coefficient, log P of the compound shaken for 45 mins and measured after 15 mins; assay type: physicochemical; details: time 60 min
[9] = tested on: Human immunodeficiency virus 1; assay: Antiviral activity against HIV1 BaL infected in human peripheral blood lymphocytes assessed as reduction in p24 production incubated for 5 days by ELISA; assay type: functional, organism-based; details: Human immunodeficiency virus 1, BaL, PBL, 120 h
[10] = tested on: Rattus norvegicus; assay: Iron scavenging activity in 59Fe-ferritin-loaded Wistar rat assessed as iron mobilization efficacy at 450 umol/kg, po dosed 1 hr after 59Fe-ferritin injection and measured 24 hrs after 59Fe-ferritin injection by gamma counting method relative to control; assay type: functional; details: dose 450 µmol/kg
[11] = Binding affinity to Fe3+ assessed as binding constant
[12] = tested on: Staphylococcus aureus; assay: Protection against Staphylococcus aureus Smith infected in sc dosed mouse administered 1 hr post infection and measured at 7 days post infection by Litchfield-Wilcoxon method; assay type: functional; details: 168 h, time 7 day
[13] = Antioxidant activity assessed as DPPH radical scavenging activity incubated for 30 mins by UV-Vis spectrophotometric method; assay type: functional
[14] = target: Amyloid-beta precursor protein (Homo sapiens, UniProt P05067); assay: Inhibition of self-induced amyloid beta (1 to 42) (unknown origin) aggregation measured after 24 hrs by ThT fluorescence assay relative to control; details: concentration not given here
Amyloid-beta precursor protein, sequence (P05067 whole entry): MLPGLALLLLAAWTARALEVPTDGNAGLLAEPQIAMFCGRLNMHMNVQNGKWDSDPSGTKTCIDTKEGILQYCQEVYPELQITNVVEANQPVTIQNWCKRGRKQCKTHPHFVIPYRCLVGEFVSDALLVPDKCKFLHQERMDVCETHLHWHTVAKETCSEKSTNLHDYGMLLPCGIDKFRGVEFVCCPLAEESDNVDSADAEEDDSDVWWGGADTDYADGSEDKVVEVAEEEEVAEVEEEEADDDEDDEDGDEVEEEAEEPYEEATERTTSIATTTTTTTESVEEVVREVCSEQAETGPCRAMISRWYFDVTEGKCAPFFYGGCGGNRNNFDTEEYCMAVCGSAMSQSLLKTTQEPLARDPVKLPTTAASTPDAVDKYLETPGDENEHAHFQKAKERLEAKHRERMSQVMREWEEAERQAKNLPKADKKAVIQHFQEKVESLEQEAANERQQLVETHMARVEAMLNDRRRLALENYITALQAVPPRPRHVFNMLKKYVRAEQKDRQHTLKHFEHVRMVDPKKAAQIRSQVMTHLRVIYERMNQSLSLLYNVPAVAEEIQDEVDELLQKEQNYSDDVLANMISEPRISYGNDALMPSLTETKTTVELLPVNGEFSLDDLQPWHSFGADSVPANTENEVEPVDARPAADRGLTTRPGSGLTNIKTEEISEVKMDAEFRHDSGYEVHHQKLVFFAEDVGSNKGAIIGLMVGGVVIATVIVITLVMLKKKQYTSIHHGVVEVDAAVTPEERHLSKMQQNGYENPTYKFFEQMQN

[15] = tested on: Providencia stuartii; assay: Antibacterial activity against Providencia stuartii incubated for 24 hrs by visual inspection; assay type: functional
[16] = tested on: Staphylococcus aureus; assay: Antibacterial activity against Staphylococcus aureus incubated for 2 hrs followed by sterilized water addition and measured after 24 hrs by visual inspection; assay type: functional; details: time 26 hrs
[17] = Binding affinity to iron assessed as pFe3+ at pH 7.4
[18] = Partition coefficient, log P of the compound; assay type: physicochemical; details: octanol/water

Q: Which Activity [1] does the source give for `CC(=O)N(O)CCCCCNC(=O)CCC(=O)N(O)CCCCCNC(=O)CCC(=O)N(O)CCCCCN` [DEFEROXAMINE] here?
A: The Activity was -468 mV.

Q: And the Activity [2]?
A: Its Activity is 26.6.

Q: For `Cc1c(O)c(=O)ccn1CC(=O)NCCNc1c2c(nc3cc(Cl)ccc13)CCCC2`, which IC50 [3] is on record?
A: The IC50 was 0.64 µM.

Q: Which IC50 [3] does the source give for `Cc1c(O)c(=O)ccn1CC(=O)NCCCNc1c2c(nc3ccccc13)CCCC2` here?
A: Its IC50 is 0.64 µM.

Q: For `CCCC(=O)NC(CCCNC(=O)c1c(O)c(=O)ccn1CCOC)(CCCNC(=O)c1c(O)c(=O)ccn1CCOC)CCCNC(=O)c1c(O)c(=O)ccn1CCOC`, which MIC [4] is on record?
A: The MIC was 32 µg/mL (≈ 37.3 µM).

Q: Which Activity [2] does the source give for `O=c1cc(CO)[nH]cc1O` here?
A: Its Activity is 22.

Q: With `CC(=O)NCCOCCOCCn1ccc(=O)c(O)c1C` as the compound, how does the logD [5] read?
A: Its logD is -2.01.

Q: For `CCCC(=O)NC(CCCNC(=O)c1c(O)c(=O)ccn1CC)(CCCNC(=O)c1c(O)c(=O)ccn1CC)CCCNC(=O)c1c(O)c(=O)ccn1CC`, which MIC [4] is on record?
A: Its MIC is 32 µg/mL (≈ 41.7 µM).

Q: Which results are given for `CCC(O)c1c(O)c(=O)cc(C)n1C` (stereo not given)?
A: Activity [6]: 21; Efficacy [7]: 60.4%

Q: With `COCCn1ccc(=O)c(O)c1C(=O)NCCCC(CCCNC(=O)c1c(O)c(=O)ccn1CCOC)(CCCNC(=O)c1c(O)c(=O)ccn1CCOC)NC(=O)[C@@H](N)CC(C)C` as the compound, how does the MIC [4] read?
A: Its MIC is 128 µg/mL (≈ 142 µM).

Q: Which Activity [1] does the source give for `Cc1c(O)c(=O)ccn1C` [DEFERIPRONE] here?
A: Its Activity is -620 mV.

Q: What about the Activity [2] of the same compound?
A: Its Activity is 20.4.

Q: And the logP at 1 h [8]?
A: The logP at 1 h was 0.17.

Q: What about the IC50 [9] of the same compound?
A: Its IC50 is 102 µM.

Q: And the Efficacy [10]?
A: The Efficacy was 13.4%.

Q: With `O=C(NCCN(CCNC(=O)c1[nH]ccc(=O)c1O)CCNC(=O)c1[nH]ccc(=O)c1O)c1[nH]ccc(=O)c1O` as the compound, how does the Activity [2] read?
A: Its Activity is 30.5.

Q: And the log Ks [11]?
A: Its log Ks is 30.7.

Q: For `CO/N=C(\C(=O)N[C@@H]1C(=O)N2C(C(=O)[O-])=C(C[n+]3cccc4c3CCC4)CS[C@H]12)c1csc(N)n1` [CEFPIROME], which ED50 [12] is on record?
A: Its ED50 is 1.5 mg/kg.

Q: For `CC(=O)N(C)O`, which Activity [2] is on record?
A: Its Activity is 13.

Q: With `Cc1c(O)c(=O)ccn1CC(=O)NCCCNc1c2c(nc3cc(Cl)ccc13)CCCC2` as the compound, how does the EC50 [13] read?
A: Its EC50 is 1110 µM.

Q: What about the IC50 [3] of the same compound?
A: The IC50 was 0.86 µM.

Q: What about the inhibition [14] of the same compound?
A: The inhibition was 95.2%.

Q: For `COCCOCCOCC(=O)NC(CCC(=O)NCc1c(O)c(=O)cc(C)n1C)(CCC(=O)NCc1c(O)c(=O)cc(C)n1C)CCC(=O)NCc1c(O)c(=O)cc(C)n1C`, which MIC [15] is on record?
A: The MIC was 320 µg/mL (≈ 373 µM).

Q: And the MIC [16]?
A: Its MIC is 240 µg/mL (≈ 280 µM).

Q: For `Cc1c(O)c(=O)ccn1CC(=O)NCC(O)CNc1c2c(nc3ccccc13)CCCC2` (stereo not given), which EC50 [13] is on record?
A: The EC50 was 399 µM.

Q: What about the Activity [2] of the same compound?
A: Its Activity is 21.7.

Q: What about the IC50 [3] of the same compound?
A: The IC50 was 0.96 µM.

Q: And the inhibition [14]?
A: Its inhibition is 86%.

Q: With `CNC(=O)c1c(O)c(=O)cc(C)n1C` as the compound, how does the Activity [17] read?
A: The Activity was 21.7.

Q: What about the IC50 [9] of the same compound?
A: The IC50 was 33.3 µM.

Q: And the Efficacy [10]?
A: The Efficacy was 58.7%.

Q: For `Cc1c(O)c(=O)ccn1CCN1CCCCC1`, which logP [18] is on record?
A: Its logP is 0.96.

Q: For `CCCCCCn1ccc(=O)c(O)c1C(=O)NCCCC(CCCNC(=O)c1c(O)c(=O)ccn1CCCCCC)(CCCNC(=O)c1c(O)c(=O)ccn1CCCCCC)NC(=O)CCC`, which MIC [4] is on record?
A: Its MIC is 32 µg/mL (≈ 34.2 µM).

Q: With `Cc1c(O)c(=O)ccn1CC(=O)NCC(O)CNc1c2c(nc3cc(Cl)ccc13)CCCC2` (stereo not given) as the compound, how does the IC50 [3] read?
A: Its IC50 is 0.64 µM.

Q: Which MIC [4] does the source give for `CCCCn1ccc(=O)c(O)c1C(=O)NCCCC(CCCNC(=O)c1c(O)c(=O)ccn1CCCC)(CCCNC(=O)c1c(O)c(=O)ccn1CCCC)NC(=O)CCC` here?
A: The MIC was 32 µg/mL (≈ 37.6 µM).

Q: With `Cc1c(O)c(=O)ccn1CC(=O)NCCCCNc1c2c(nc3cc(Cl)ccc13)CCCC2` as the compound, how does the IC50 [3] read?
A: Its IC50 is 0.64 µM.

Q: What does the source list for `CNC(=O)c1[nH]c(C)cc(=O)c1O`?
A: Activity [17]: 22.8; IC50 [9]: 20 µM; Efficacy [10]: 50.1%
